# ChEMBL document CHEMBL5543140 (J Med Chem, 2024)
# The source made the active and inactive calls. The calls are words filed in the database; no cut-off is given here.
# Columns and labels:
# [1] = AUClast in male Sprague-Dawley rat CSF at 1 mg/kg, iv measured upto 8 hrs by LC-MS/MS analysis; assay type: ADME, organism-based, Cerebrospinal fluid
# [2] = Cmax in Wistar rat brain at 5 mg/kg, po measured upto 48 hrs; assay type: ADME, organism-based
# [3] = tested on: Hippocampus; test: Induction of neuroplasticity in C57BL/6J mouse assessed as increase in […] mRNA expression in brain hippocampus at 0.3 mg/kg, sc single dose by RT-PCR analysis; assay type: functional, organism-based
# [4] = target: Voltage-dependent L-type calcium channel subunit alpha-1C (Homo sapiens, UniProt Q13936); test: Binding affinity to human Calcium channel L-type (verapamil site) at 10 uM measured after 180 mins by [3H]D888-Radiometric assay relative to control
# [5] = MRTinf in male Sprague-Dawley rat plasma at 1 mg/kg, iv measured upto 8 hrs by LC-MS/MS analysis; assay type: ADME, organism-based
# [6] = Ex vivo binding in C57BL/6J mouse brain frontal cortex assessed as inhibition of [3H]Cimbi-36 binding at 1 mg/kg, sc measured after 160 mins by liquid scintillation counting analysis (reference value: 0%); assay type: functional; details: 2.667 h
# [7] = Volume of distribution at steady state in male Sprague-Dawley rat plasma at 1 mg/kg, iv measured upto 8 hrs by LC-MS/MS analysis; assay type: ADME, organism-based; details: read-out: Vdss
# [8] = target: T1, 5-hydroxytryptamine receptor 1A (Homo sapiens) (UniProt P08908); test: Agonist activity at human 5-HT1A receptor expressed in HEK293T cells co-transfected with 22F-Glosensor assessed as maximal inhibition of cAMP production measured after 30 mins incubation by Microbeta2Micro-plate counter analysis relative to control; assay type: functional, cell-based; details: filed as agonist
# T1 sequence (whole entry): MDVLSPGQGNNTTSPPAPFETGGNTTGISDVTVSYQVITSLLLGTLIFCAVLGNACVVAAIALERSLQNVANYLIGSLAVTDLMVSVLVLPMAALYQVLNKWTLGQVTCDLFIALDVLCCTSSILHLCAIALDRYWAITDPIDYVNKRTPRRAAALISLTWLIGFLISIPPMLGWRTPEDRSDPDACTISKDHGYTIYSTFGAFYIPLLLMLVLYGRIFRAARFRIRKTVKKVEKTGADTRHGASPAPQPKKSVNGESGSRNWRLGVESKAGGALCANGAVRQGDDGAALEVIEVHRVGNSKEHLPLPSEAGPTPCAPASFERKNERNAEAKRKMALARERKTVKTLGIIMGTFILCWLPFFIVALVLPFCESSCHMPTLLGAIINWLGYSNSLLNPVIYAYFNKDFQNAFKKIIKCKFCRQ
# [9] = Half life in Wistar rat plasma at 5 mg/kg, po measured upto 48 hrs; assay type: ADME, organism-based
# [10] = tested on: Mus musculus; test: Induction of neuroplasticity in C57BL/6J mouse assessed as increase in c-Fos mRNA expression in brain frontal cortex at 3 mg/kg, sc single dose by RT-PCR analysis; assay type: functional, organism-based
# [11] = target: Adrenergic receptor alpha-2 (Rattus norvegicus) (UniProt P22086+P19328+P22909); test: Displacement of [3H]RX 821002 from rat cerebral cortex alpha2 adrenergic receptor assessed as remaining activity at 10 uM after 60 mins by scintillation counting method relative to control
# [12] = Ex vivo binding in C57BL/6J mouse brain frontal cortex assessed as specific binding [3H]Cimbi-36 at 1 mg/kg, sc measured after 15 mins by liquid scintillation counting analysis (reference value: 1092 +/- 53); assay type: functional; details: 0.25 h
# [13] = tested on: Hippocampus; test: Induction of neuroplasticity in C57BL/6J mouse assessed as increase in EGR2 mRNA expression in brain hippocampus at 3 mg/kg, sc single dose by RT-PCR analysis; assay type: functional, organism-based
# [14] = Metabolic stability in human liver S9 fractions assessed as half life; assay type: ADME, subcellular; details: liver S9 fraction
# [15] = tested on: Hippocampus; test: Induction of neuroplasticity in C57BL/6J mouse assessed as increase in PSD-95 mRNA expression in brain hippocampus at 3 mg/kg, sc single dose by RT-PCR analysis; assay type: functional, organism-based
# [16] = target: 5-hydroxytryptamine receptor 7 (Homo sapiens, UniProt P34969); test: Displacement of [3H]LSD from 5-HT7 receptor (unknown origin) assessed as inhibition binding
# [17] = target: T2, 5-hydroxytryptamine receptor 2B (Homo sapiens, UniProt P41595); test: Agonist activity at human 5-HT2B receptor expressed in CHO cells assessed as maximal IP2 production measured after 30 mins incubation by HTRF assay relative to control; assay type: functional, cell-based; details: read-out: EC50
# [18] = Half life in Wistar rat plasma at 1 mg/kg, iv measured upto 48 hrs; assay type: ADME, organism-based
# [19] = AUClast in male Sprague-Dawley rat brain at 1 mg/kg, iv measured upto 8 hrs by LC-MS/MS analysis; assay type: ADME, organism-based
# [20] = target: 5-hydroxytryptamine receptor 5A (Homo sapiens) (UniProt P47898); test: Binding affinity to human 5-HT5A receptor (unknown origin) at 10 uM by radioligand displacement assay
# [21] = target: T2, 5-hydroxytryptamine receptor 2B; test: Agonist activity at human 5-HT2B receptor expressed in CHO cells assessed as IP2 production measured after 30 mins incubation by HTRF assay; assay type: functional, cell-based
# [22] = AUCinf in beagle dog at 2 mg/kg, po measured upto 24 hrs; assay type: ADME, organism-based, Canis lupus familiaris; details: in vivo
# [23] = MRTinf in male Sprague-Dawley rat brain at 1 mg/kg, iv measured upto 8 hrs by LC-MS/MS analysis; assay type: ADME, organism-based
# [24] = Clearance in Wistar rat plasma at 1 mg/kg, iv measured upto 48 hrs; assay type: ADME, organism-based
# [25] = target: 5-hydroxytryptamine receptor 2A (Homo sapiens, UniProt P28223); test: Binding affinity to human [125I]LSD-labeled 5-HT2A receptor expressed in HEK293 cell membrane incubated for 60 mins; assay type: cell membranes
# [26] = AUClast in Wistar rat plasma at 1 mg/kg, iv measured upto 48 hrs; assay type: ADME, organism-based
# [27] = AUClast in Wistar rat plasma at 5 mg/kg, po measured upto 48 hrs; assay type: ADME, organism-based
# [28] = Drug metabolism in rat hepatocytes assessed as formation of sulfoxide with N-acetylation/0-glucuronidations metabolites at 10 uM by HRAMS analysis; assay type: ADME, cell-based, Hepatocyte
# [29] = AUClast in Wistar rat brain at 1 mg/kg, iv measured upto 48 hrs; assay type: ADME, organism-based
# [30] = Ex vivo binding in C57BL/6J mouse brain frontal cortex assessed as specific binding [3H]Cimbi-36 at 1 mg/kg, sc measured after 300 mins by liquid scintillation counting analysis (reference value: 1092 +/- 53); assay type: functional; details: 5 h
# [31] = target: 5-hydroxytryptamine receptor 3A (Homo sapiens) (UniProt P46098); test: Binding affinity to human 5-HT3 receptor (unknown origin) at 10 uM by radioligand displacement assay
# [32] = Cmax in Wistar rat brain at 1 mg/kg, iv measured upto 48 hrs; assay type: ADME, organism-based
# [33] = Half life in male Sprague-Dawley rat CSF at 1 mg/kg, iv measured upto 8 hrs by LC-MS/MS analysis; assay type: ADME, organism-based, Cerebrospinal fluid
# [34] = Ex vivo binding in C57BL/6J mouse brain frontal cortex assessed as inhibition of [3H]Cimbi-36 binding at 1 mg/kg, sc measured after 15 mins by liquid scintillation counting analysis (reference value: 0%); assay type: functional; details: 0.25 h
# T2 sequence (P41595 whole entry): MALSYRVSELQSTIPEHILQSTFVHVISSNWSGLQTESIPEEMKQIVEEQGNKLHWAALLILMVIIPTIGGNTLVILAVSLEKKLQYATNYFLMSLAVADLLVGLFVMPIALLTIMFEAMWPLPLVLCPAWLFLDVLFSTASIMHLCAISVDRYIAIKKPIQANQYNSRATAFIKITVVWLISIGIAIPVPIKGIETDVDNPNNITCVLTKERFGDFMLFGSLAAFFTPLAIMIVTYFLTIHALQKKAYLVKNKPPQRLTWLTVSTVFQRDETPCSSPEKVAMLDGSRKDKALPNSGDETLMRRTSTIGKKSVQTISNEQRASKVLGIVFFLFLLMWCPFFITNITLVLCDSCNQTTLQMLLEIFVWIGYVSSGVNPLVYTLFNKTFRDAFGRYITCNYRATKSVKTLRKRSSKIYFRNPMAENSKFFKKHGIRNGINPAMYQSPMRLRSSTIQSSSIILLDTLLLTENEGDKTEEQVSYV
# Chain of 5-hydroxytryptamine receptor 3A (Homo sapiens) (P46098 whole entry): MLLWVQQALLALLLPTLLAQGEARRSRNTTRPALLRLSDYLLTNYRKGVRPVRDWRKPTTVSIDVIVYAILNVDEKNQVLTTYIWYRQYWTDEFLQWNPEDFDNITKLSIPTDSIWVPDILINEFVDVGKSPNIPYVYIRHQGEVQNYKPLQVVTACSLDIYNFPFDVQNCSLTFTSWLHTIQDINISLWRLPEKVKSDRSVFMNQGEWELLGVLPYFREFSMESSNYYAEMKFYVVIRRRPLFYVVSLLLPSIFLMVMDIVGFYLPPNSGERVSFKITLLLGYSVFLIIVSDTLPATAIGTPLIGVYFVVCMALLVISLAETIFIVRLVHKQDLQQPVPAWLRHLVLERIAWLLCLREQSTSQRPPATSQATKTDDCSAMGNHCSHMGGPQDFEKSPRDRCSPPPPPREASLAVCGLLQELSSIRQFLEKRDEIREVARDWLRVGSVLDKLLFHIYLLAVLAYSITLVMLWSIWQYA
# Chain of 5-hydroxytryptamine receptor 2A (P28223 whole entry): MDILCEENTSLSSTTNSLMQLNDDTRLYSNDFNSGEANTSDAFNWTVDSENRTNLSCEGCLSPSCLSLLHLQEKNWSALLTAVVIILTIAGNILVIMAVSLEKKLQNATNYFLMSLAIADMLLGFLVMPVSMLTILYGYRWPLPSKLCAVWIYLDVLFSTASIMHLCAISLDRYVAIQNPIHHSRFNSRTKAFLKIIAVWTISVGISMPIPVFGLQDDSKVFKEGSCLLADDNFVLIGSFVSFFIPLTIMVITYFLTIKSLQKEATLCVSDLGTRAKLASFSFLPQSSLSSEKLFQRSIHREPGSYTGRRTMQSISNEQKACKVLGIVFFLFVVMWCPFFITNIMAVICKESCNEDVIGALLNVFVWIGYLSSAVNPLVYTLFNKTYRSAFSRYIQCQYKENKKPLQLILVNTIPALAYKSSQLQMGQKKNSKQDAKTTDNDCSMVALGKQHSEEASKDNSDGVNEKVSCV
# Chain of Voltage-dependent L-type calcium channel subunit alpha-1C (Q13936 whole entry): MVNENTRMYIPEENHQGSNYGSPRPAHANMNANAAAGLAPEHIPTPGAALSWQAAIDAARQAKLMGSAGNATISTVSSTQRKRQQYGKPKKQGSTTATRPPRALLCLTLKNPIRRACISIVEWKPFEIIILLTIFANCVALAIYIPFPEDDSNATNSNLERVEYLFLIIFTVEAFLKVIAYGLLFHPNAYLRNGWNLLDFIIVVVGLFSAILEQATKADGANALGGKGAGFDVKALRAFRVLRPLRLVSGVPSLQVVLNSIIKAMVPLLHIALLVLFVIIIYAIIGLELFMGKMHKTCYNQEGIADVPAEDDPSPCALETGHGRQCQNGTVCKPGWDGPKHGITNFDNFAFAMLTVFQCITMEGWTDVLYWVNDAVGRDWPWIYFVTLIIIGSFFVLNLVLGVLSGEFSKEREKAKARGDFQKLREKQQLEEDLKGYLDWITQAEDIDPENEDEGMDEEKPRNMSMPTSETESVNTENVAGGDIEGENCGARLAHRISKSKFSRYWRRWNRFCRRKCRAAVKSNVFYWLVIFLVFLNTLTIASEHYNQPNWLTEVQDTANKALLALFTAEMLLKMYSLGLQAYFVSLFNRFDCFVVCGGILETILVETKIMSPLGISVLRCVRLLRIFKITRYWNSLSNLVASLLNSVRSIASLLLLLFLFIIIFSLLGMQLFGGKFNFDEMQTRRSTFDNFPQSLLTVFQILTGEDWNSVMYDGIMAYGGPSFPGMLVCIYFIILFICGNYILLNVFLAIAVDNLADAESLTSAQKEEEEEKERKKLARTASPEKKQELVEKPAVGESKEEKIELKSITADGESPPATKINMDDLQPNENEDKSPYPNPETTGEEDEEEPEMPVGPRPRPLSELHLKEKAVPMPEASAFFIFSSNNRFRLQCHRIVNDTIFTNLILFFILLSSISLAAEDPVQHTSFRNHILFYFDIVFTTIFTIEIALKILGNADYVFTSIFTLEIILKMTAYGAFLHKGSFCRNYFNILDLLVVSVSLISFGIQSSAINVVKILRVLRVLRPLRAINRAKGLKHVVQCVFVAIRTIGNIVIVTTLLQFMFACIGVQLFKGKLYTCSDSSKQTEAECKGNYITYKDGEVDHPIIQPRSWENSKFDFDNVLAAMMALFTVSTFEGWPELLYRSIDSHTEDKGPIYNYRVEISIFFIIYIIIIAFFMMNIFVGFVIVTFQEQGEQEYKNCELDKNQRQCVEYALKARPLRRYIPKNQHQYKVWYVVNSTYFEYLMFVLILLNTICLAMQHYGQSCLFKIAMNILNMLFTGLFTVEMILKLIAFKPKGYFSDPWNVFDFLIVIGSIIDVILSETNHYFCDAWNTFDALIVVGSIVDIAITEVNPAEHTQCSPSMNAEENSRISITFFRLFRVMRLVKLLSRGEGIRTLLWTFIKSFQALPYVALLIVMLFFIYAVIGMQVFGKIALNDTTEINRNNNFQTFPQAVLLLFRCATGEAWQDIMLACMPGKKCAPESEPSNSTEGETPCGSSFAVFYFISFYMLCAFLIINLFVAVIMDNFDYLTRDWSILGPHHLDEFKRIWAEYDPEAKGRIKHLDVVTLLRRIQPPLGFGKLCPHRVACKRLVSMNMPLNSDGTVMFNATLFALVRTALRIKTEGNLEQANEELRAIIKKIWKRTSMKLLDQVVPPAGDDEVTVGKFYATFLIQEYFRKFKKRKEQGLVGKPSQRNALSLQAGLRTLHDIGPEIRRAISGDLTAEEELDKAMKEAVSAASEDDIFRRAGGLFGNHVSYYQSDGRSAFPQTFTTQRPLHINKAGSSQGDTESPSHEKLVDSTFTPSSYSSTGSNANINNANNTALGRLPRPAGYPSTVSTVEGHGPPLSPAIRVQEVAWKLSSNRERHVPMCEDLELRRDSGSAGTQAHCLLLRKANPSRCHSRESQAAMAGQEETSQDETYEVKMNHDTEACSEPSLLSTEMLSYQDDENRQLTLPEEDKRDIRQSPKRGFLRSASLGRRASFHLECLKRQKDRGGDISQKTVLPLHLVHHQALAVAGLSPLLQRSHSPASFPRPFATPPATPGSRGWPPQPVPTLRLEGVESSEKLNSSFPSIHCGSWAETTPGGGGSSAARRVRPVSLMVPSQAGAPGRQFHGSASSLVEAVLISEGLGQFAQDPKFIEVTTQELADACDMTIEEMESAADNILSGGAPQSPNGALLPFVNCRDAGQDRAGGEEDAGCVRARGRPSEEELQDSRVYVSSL
# Chain of 5-hydroxytryptamine receptor 5A (Homo sapiens) (P47898 whole entry): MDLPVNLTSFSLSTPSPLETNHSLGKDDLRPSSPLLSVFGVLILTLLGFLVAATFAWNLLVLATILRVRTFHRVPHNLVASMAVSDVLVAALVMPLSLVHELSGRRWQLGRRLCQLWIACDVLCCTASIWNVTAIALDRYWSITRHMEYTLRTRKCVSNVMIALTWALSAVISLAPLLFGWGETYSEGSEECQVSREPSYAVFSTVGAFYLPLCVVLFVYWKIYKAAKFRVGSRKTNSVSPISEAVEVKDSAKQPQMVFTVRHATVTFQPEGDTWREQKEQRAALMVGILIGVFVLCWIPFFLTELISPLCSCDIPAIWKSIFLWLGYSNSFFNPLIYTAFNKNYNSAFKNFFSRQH
# Chain of 5-hydroxytryptamine receptor 7 (P34969 whole entry): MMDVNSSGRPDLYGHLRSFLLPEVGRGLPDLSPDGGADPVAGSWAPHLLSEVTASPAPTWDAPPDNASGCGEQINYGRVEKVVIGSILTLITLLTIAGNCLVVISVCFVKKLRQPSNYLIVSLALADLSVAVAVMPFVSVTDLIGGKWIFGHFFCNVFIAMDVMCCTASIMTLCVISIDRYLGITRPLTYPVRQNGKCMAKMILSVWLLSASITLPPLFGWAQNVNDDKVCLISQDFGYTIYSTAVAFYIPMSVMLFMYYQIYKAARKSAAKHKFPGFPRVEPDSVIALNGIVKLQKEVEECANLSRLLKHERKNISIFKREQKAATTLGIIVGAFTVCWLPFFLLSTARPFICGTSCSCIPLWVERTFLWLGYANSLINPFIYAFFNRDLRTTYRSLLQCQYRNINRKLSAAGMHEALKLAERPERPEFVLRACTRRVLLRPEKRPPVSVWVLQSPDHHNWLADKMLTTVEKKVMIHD
smiles,measurement,setting,value
COc1cc([Se]C(F)(F)F)c(OC)cc1CCN.Cl,AUC(0-t) at 8 h,[1],49.9 ng·h/mL
same,Cmax,[2],402 ng/mL
same,Activity,[3],inactive
same,Activity,[4],85%
same,MRT inf,[5],1.19 h
same,inhibition in vivo at 1 mg/kg,[6],33%
same,Vd,[7],5.67 L/kg
same,Emax,[8],92%
same,half-life,[9],212 min
same,Activity,[10],Active
same,Activity,[11],97%
same,Activity,[12],971
same,Activity,[13],inactive
same,half-life,[14],> 120 min
same,Activity,[15],inactive
same,Ki,[16],4.92 µM
same,EC50,[17],7.3 nM
same,half-life,[18],46.8 min
same,AUC(0-t) at 8 h,[19],3220 ng·h/mL
same,Activity,[20],inactive
same,EC50,[21],88 nM
same,AUC(0-inf),[22],2970 ng·h/mL
same,MRT inf,[23],1.98 h
same,clearance,[24],328 mL/min/kg
same,Ki,[25],4.1 nM
same,AUC(0-t) at 48 h,[26],42.2 ng·h/mL
same,AUC(0-t) at 48 h,[27],40.3 ng·h/mL
same,Drug metabolism,[28],Metabolite_Detected
same,AUC(0-t) at 48 h,[29],2910 ng·h/mL
same,Activity,[30],857
same,Activity,[31],inactive
same,Cmax,[32],890 ng/mL
same,half-life,[33],75.6 min
same,inhibition in vivo at 1 mg/kg,[34],11%
